Measurements: patent US20220009920A1 (GB005, Inc., priority 2020, published 2022)

What was measured:
Experiment in all cases: Large panel kinase profiling
Format in all cases: biochemical
Settings in all cases: 1 μM test article, 1 mM ATP
[1] = target: T1, MAP4K2/GCK (Homo sapiens, UniProt Q12851)
T1 construct: AssayQuant Technologies, Inc. (service provider)
T1 sequence (Q12851 1-820): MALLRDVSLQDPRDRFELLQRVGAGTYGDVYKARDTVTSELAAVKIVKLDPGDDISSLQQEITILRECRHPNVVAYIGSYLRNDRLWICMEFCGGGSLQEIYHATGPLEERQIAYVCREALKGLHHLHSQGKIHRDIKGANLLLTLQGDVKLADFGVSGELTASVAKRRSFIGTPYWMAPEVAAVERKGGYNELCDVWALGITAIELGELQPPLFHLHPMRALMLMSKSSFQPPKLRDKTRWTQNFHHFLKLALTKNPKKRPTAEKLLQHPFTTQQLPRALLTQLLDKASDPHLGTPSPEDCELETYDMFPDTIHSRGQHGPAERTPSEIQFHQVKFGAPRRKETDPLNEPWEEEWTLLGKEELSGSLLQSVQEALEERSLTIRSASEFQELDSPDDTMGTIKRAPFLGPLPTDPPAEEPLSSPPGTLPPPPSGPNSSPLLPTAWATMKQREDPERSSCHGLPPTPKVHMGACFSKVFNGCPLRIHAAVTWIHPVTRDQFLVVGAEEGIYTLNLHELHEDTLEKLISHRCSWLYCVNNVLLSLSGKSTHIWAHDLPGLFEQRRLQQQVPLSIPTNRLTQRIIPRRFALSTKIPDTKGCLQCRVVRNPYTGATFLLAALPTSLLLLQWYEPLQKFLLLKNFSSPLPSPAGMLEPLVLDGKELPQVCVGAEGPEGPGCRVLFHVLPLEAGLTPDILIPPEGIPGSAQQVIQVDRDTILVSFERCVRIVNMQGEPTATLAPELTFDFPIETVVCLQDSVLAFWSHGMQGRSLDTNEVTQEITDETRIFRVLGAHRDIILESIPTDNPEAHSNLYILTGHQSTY
How it was run: (§1)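 CSox-Sensor fluorescence readout; test article 1 μM, ATP 1 mM, 30° C.; kinetic reads at 1-min intervals, Ex 360/Em 485 nm.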

[2] = target: CAMK1G (Homo sapiens, UniProt Q96NX5)
How it was run: as §1

[3] = target: T2, AURKA/AURA (Homo sapiens, UniProt O14965)
T2 sequence (O14965 1-403): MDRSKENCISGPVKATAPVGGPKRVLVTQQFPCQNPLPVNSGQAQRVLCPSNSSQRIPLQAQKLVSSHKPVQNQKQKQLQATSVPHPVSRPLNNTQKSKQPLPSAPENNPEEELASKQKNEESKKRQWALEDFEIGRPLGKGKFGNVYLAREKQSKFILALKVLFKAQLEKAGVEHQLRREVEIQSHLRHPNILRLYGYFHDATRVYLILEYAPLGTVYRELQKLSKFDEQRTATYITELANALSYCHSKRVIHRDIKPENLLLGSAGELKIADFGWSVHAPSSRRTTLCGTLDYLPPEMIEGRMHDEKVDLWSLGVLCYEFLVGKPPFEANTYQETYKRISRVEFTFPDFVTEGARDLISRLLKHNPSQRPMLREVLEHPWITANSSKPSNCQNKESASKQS
How it was run: as §1

[4] = target: T3, SRC (Homo sapiens, UniProt P12931)
T3 construct: AssayQuant Technologies, Inc. (contract assay)
How it was run: as §1

[5] = target: T4, CDK7 (Homo sapiens, UniProt P50613)
T4 construct: AssayQuant Technologies, Inc. (ran the panel)
How it was run: as §1

[6] = target: T5, CDC42BPB/MRCKB (Homo sapiens, UniProt Q9Y5S2)
T5 construct: AssayQuant Technologies, Inc. (ran the panel)
How it was run: as §1

[7] = target: T6, CDK5/P25 (Homo sapiens, UniProt Q00535)
T6 construct: AssayQuant Technologies, Inc. (ran the panel)
How it was run: as §1

[8] = target: T7, STK3/MST2 (Homo sapiens, UniProt Q13188)
T7 construct: AssayQuant Technologies, Inc. (contract assay)
T7 sequence (Q13188 1-491): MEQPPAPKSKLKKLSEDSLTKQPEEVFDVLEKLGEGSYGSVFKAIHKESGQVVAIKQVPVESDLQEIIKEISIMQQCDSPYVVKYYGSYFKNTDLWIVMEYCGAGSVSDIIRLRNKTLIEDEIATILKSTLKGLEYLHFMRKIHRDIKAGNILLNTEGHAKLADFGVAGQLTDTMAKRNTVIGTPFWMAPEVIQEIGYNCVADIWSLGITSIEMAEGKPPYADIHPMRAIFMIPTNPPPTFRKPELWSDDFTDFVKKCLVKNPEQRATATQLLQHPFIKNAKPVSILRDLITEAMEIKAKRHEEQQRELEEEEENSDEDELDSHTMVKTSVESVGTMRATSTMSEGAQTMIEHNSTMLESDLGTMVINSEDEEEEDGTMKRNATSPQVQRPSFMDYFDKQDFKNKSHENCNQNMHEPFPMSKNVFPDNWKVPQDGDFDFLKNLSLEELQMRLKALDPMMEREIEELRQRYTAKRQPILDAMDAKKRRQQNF
How it was run: as §1

[9] = target: T8, CDC42BPA/MRCKA (Homo sapiens, UniProt Q5VT25)
T8 construct: AssayQuant Technologies, Inc. (ran the panel)
How it was run: as §1

T6 sequence (Q00535 whole entry, species assumed): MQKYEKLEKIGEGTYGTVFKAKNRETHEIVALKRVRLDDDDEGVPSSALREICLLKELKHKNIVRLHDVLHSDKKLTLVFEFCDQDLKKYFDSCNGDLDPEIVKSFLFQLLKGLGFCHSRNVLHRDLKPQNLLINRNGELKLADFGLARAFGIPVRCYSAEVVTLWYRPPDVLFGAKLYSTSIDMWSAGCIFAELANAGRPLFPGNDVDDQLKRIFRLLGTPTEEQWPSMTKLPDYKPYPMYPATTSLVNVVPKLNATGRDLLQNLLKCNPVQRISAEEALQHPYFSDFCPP
T6 sequence (Q15078 99-307 partner limits assumed, species assumed): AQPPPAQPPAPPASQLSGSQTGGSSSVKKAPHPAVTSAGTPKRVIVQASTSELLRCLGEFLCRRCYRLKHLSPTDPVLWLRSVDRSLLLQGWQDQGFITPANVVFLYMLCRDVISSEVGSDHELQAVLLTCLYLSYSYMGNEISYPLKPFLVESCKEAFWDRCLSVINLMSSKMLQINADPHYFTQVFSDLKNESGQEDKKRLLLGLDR
T4 sequence (P50613 whole entry, species assumed): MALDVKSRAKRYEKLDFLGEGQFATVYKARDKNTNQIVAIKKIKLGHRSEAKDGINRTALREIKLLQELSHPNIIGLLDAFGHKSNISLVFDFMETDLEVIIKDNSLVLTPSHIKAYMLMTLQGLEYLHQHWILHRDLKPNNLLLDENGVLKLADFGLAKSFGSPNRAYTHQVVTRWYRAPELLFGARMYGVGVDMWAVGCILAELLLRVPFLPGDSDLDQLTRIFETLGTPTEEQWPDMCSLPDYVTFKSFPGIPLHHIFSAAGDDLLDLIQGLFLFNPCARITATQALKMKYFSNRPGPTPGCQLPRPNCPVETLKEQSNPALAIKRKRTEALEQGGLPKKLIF
T4 sequence (P51946 whole entry partner, species assumed): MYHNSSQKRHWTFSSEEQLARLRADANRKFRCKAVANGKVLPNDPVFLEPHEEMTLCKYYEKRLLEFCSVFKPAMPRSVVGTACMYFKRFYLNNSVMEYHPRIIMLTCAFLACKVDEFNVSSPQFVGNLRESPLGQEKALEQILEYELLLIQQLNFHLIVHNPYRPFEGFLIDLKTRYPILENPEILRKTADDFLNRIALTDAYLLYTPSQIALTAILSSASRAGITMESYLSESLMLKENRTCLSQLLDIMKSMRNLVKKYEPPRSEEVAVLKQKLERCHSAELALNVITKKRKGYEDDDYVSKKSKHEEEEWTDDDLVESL
T4 sequence (P51948 whole entry partner, species assumed): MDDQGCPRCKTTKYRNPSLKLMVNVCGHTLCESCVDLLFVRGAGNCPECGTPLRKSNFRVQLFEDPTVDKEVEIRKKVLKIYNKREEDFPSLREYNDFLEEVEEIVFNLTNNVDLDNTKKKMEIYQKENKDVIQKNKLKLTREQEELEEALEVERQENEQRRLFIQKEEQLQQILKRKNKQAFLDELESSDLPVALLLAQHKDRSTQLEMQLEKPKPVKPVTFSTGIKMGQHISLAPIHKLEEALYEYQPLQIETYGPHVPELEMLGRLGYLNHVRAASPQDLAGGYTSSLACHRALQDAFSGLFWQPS
CAMK1G, sequence (Q96NX5 whole entry): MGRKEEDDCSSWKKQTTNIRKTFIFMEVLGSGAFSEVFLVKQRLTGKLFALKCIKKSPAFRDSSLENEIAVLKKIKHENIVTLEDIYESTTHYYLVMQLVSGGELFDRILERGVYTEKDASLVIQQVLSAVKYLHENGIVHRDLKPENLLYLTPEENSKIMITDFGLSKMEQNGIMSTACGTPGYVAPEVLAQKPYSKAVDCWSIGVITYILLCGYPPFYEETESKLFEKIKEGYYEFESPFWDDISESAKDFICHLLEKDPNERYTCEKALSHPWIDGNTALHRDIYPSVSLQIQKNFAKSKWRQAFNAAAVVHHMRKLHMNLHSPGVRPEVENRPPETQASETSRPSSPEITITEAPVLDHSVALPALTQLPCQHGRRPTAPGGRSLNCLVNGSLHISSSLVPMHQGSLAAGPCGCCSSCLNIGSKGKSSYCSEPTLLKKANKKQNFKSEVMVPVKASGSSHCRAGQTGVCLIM
T8 sequence (Q5VT25 whole entry): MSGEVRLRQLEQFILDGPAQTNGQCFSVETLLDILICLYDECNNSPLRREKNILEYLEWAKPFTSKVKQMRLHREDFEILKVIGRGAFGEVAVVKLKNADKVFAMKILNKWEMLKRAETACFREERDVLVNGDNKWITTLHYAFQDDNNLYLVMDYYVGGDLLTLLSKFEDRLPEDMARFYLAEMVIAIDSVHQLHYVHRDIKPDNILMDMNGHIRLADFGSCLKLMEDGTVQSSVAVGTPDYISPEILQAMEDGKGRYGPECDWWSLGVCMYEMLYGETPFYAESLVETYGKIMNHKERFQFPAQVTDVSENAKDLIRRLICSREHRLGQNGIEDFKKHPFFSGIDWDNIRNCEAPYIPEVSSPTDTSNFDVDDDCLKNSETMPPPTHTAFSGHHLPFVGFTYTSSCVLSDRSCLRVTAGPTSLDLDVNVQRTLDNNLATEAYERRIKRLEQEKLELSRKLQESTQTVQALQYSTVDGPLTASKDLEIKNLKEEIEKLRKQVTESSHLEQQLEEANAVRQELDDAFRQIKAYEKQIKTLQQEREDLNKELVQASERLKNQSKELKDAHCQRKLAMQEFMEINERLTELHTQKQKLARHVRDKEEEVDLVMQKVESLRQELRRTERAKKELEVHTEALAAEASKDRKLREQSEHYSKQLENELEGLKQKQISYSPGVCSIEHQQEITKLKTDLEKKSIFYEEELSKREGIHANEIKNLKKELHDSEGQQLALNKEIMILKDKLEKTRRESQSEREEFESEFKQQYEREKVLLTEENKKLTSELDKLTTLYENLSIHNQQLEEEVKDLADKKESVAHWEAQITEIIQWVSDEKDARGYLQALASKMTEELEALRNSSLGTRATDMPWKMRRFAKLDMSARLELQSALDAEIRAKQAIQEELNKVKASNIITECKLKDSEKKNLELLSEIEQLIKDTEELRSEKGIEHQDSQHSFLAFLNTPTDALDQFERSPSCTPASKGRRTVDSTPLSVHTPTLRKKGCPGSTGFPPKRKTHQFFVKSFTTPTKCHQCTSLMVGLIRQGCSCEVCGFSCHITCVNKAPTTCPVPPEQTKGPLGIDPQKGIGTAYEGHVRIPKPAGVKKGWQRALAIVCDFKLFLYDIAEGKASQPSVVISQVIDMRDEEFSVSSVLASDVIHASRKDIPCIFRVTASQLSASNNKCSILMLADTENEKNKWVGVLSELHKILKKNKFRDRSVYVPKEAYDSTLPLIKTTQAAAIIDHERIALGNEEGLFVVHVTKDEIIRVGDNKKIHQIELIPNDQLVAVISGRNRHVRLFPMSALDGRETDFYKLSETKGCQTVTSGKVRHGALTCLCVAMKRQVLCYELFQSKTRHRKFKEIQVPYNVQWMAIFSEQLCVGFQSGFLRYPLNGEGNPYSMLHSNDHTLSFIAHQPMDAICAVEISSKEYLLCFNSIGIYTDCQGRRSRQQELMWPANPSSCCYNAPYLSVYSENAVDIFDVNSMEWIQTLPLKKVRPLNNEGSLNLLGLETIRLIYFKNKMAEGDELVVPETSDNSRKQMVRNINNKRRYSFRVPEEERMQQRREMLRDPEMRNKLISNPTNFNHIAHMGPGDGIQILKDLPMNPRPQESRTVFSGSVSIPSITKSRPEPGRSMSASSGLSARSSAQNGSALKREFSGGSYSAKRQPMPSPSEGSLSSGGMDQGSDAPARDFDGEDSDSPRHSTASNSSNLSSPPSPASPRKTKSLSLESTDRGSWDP
T3 sequence (P12931 whole entry, species assumed): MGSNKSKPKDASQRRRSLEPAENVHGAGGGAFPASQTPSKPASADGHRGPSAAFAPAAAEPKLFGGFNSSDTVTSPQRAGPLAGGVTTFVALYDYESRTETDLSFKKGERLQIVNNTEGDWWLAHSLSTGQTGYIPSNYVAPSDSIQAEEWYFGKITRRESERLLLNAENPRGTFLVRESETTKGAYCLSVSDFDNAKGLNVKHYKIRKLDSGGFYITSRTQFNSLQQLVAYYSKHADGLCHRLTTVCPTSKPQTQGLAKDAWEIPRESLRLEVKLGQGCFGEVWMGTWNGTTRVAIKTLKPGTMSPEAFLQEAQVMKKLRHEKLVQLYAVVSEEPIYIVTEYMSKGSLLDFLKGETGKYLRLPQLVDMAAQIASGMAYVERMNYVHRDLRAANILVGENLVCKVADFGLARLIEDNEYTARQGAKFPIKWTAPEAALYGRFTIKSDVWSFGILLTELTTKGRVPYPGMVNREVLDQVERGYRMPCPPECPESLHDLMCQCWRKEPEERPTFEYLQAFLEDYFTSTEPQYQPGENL

## C=CC(=O)N1CCCC(c2c(F)cc(C(N)=O)c3[nH]c4c(c23)CCCCC4)C1 (single isomer, unassigned) [Compound 5-6]
[1]
  inhibition at 1 µM: -46.6%
[2]
  inhibition at 1 µM: 15.6%
[3]
  inhibition at 1 µM: -42%
[4]
  inhibition at 1 µM: -28.3%
[5]
  inhibition at 1 µM: -10.1%
[6]
  inhibition at 1 µM: -31%
[7]
  inhibition at 1 µM: -11.1%
[8]
  inhibition at 1 µM: -13.7%
[9]
  inhibition at 1 µM: -30.9%

## C=CC(=O)N1CCC[C@@H](c2c(F)cc(C(N)=O)c3[nH]c4c(c23)CC2(CC4)CC2)C1 [Compound 6-2, (S)-5-(1-acryloylpiperidin-3-yl)-6-fluoro-1,2,4,9-tetrahydrospiro[carbazole-3,1′-cyclopropane]-8-carboxamide]
[1]
  inhibition at 1 µM: -1.3%
[2]
  inhibition at 1 µM: 19.6%
[3]
  inhibition at 1 µM: -24.7%
[4]
  inhibition at 1 µM: -7%
[5]
  inhibition at 1 µM: -6%
[6]
  inhibition at 1 µM: -12.6%
[7]
  inhibition at 1 µM: -13%
[8]
  inhibition at 1 µM: -25.3%
[9]
  inhibition at 1 µM: -16.2%

## C=CC(=O)N1CCC[C@@H](c2c(F)cc(C(N)=O)c3[nH]c4c(c23)CCC4)C1 [Compound 10-2, (S)-8-(1-acryloylpiperidin-3-yl)-7-fluoro-1,2,3,4-tetrahydrocyclo-penta[b]indole-5-carboxamide]
[1]
  inhibition at 1 µM: -1.3%
[2]
  inhibition at 1 µM: 9.7%
[3]
  inhibition at 1 µM: -12.1%
[4]
  inhibition at 1 µM: -1.8%
[5]
  inhibition at 1 µM: 14.1%
[6]
  inhibition at 1 µM: -10.2%
[7]
  inhibition at 1 µM: 1.6%
[8]
  inhibition at 1 µM: -14.4%
[9]
  inhibition at 1 µM: 1.8%
